Series [1] concerns the target T1, Cytochrome P450 3A4 (Homo sapiens, UniProt P08684). The series can be described thus: Drug metabolism assessed as recombinant CYP3A4 (unknown origin)-mediated compound formation treated with AMG 853 at 10 uM after 30 mins by LC-MS/MS analysis. Format: ADME. The settings on record: recombinant enzyme, 0.5 h.
Series [2] can be described thus: Drug metabolism in human liver microsomes assessed as CYP3A5*1/*1-mediated compound formation treated with AMG 853 after 15 mins by LC-MS/MS analysis. The conditions noted are these: 0.25 h. The class given is ADME.
Series [3] addresses T2, Cytochrome P450 3A7 (Homo sapiens, UniProt P24462). Kind of series: Drug metabolism assessed as recombinant CYP3A7 (unknown origin)-mediated compound formation treated with AMG 853 at 10 uM after 30 mins by LC-MS/MS analysis. The class given is ADME. The conditions noted are these: recombinant enzyme, 0.5 h.
The target in series [4] is T3, Cytochrome P450 2J2 (Homo sapiens, UniProt P51589).
T3 sequence (P51589 whole entry): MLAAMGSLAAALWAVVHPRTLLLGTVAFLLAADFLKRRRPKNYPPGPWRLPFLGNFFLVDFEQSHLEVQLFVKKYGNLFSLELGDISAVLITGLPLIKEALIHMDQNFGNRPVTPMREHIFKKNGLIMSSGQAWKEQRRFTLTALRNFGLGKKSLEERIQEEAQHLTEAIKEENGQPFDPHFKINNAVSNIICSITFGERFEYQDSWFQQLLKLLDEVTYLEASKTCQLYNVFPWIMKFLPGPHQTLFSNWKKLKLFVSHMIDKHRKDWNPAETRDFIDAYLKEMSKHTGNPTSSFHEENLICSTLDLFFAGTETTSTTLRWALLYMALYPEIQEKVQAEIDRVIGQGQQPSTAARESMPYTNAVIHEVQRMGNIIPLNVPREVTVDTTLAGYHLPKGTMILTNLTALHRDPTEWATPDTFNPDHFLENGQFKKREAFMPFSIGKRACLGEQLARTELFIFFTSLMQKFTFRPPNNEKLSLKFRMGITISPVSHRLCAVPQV
The series can be described thus: Drug metabolism assessed as recombinant CYP2J2 (unknown origin)-mediated compound formation treated with AMG 853 at 10 uM after 30 mins by LC-MS/MS analysis. The class given is ADME. The conditions noted are these: recombinant enzyme, 0.5 h.

For series [5], the target named is T3, Cytochrome P450 2J2. The series can be described thus: Inhibition of recombinant CYP2J2 (unknown origin) treated with AMG 853. The class given is ADME.
Series [6] addresses T4, Cytochrome P450 3A5 (Homo sapiens, UniProt P20815). Kind of series: Drug metabolism assessed as recombinant CYP3A5 (unknown origin)-mediated compound formation treated with AMG 853 at 10 uM after 30 mins by LC-MS/MS analysis. The conditions noted are these: recombinant enzyme, 0.5 h. Format: ADME.
Series [7] has as its target T3, Cytochrome P450 2J2. Kind of series: Drug metabolism assessed as recombinant CYP2J2 (unknown origin)-mediated compound formation measured per nmol protein treated with AMG 853 after 15 mins by LC-MS/MS analysis. Format: ADME. The settings on record: recombinant enzyme, 0.25 h.
The nature of series [8]: Drug metabolism in human liver microsomes assessed as […]-mediated compound formation treated with AMG 853 after 15 mins by LC-MS/MS analysis. Format: ADME. The conditions noted are these: 0.25 h. Background: Liver microsomes are a subcellular fraction often used to study metabolism.
Series [9] deals with T2, Cytochrome P450 3A7. The series can be described thus: Drug metabolism assessed as recombinant CYP3A7 (unknown origin)-mediated compound formation measured per nmol protein treated with AMG 853 after 15 mins by LC-MS/MS analysis. The conditions noted are these: recombinant enzyme, 0.25 h. The class given is ADME.
For series [10], the target named is T4, Cytochrome P450 3A5. The series can be described thus: Drug metabolism assessed as recombinant CYP3A5 (unknown origin)-mediated compound formation measured per nmol protein treated with AMG 853 after 15 mins by LC-MS/MS analysis. Format: ADME. The conditions noted are these: recombinant enzyme, 0.25 h.
Series [11] addresses T5, Cytochrome P450 2C8 (Homo sapiens, UniProt P10632).
T5 sequence (P10632 whole entry): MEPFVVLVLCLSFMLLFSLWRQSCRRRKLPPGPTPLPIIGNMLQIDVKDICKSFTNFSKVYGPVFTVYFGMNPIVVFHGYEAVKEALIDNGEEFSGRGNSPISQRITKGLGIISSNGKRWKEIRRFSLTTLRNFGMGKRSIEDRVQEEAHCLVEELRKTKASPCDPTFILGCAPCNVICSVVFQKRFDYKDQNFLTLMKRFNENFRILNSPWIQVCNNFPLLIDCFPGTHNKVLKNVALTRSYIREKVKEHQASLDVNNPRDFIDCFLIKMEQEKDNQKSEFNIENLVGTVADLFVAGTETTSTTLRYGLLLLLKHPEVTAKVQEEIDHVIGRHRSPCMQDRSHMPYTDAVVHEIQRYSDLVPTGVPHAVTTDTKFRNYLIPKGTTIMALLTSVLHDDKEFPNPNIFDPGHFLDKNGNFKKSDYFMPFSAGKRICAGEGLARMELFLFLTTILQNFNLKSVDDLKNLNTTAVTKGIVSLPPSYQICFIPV
Kind of series: Drug metabolism assessed as recombinant CYP2C8 (unknown origin)-mediated compound formation treated with AMG 853 at 10 uM after 30 mins by LC-MS/MS analysis. The conditions noted are these: recombinant enzyme, 0.5 h. Format: ADME.

Series [12] concerns the target T5, Cytochrome P450 2C8. Kind of series: Inhibition of recombinant CYP2C8 (unknown origin) treated with AMG 853. The class given is ADME.
In series [13] the target is T5, Cytochrome P450 2C8. Kind of series: Drug metabolism assessed as recombinant CYP2C8 (unknown origin)-mediated compound formation measured per nmol protein treated with AMG 853 after 15 mins by LC-MS/MS analysis. The class given is ADME. The conditions noted are these: recombinant enzyme, 0.25 h.
For series [14], the target named is T1, Cytochrome P450 3A4. Kind of series: Drug metabolism assessed as recombinant CYP3A4 (unknown origin)-mediated compound formation measured per nmol protein treated with AMG 853 after 15 mins by LC-MS/MS analysis. The class given is ADME. The settings on record: recombinant enzyme, 0.25 h.
A further series concerns the target Cytochrome P450 2C19 (Homo sapiens, UniProt P33261). The series can be described thus: Drug metabolism assessed as recombinant CYP2C19 (unknown origin)-mediated compound formation treated with AMG 853 at 10 uM after 30 mins by LC-MS/MS analysis. Format: ADME. The conditions noted are these: recombinant enzyme, 0.5 h.
A further series deals with CYP1A2 (Homo sapiens, UniProt P05177). Kind of series: Induction of CYP1A2 in human hepatocytes using phenacetin as substrate at 0.3 to 30 uM treated every 24 hrs for 2 days measured on day 5 by LC-MS/MS analysis relative to control. The class given is ADME, cell-based, Hepatocyte. The settings on record: probe phenacetin, read-out: FC.
Sequence of CYP1A2 (P05177 whole entry): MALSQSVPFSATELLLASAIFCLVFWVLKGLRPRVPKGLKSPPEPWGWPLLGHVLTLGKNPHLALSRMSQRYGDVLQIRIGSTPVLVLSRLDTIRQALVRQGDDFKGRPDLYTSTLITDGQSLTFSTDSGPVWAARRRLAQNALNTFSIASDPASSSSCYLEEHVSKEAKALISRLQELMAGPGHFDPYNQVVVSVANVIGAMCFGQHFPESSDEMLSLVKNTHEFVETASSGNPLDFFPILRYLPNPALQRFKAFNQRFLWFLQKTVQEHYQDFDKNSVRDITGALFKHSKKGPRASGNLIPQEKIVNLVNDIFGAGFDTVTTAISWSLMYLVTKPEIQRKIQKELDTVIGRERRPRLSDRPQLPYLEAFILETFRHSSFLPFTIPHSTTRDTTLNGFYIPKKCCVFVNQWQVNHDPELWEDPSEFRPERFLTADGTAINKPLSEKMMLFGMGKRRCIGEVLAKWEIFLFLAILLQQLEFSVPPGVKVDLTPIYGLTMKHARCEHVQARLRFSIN
The next series deals with CYP2B6 (Homo sapiens, UniProt P20813). Kind of series: Induction of CYP2B6 in human hepatocytes using bupropion as substrate at 0.3 to 30 uM treated every 24 hrs for 2 days measured on day 5 by LC-MS/MS analysis relative to control. The class given is ADME, cell-based, Hepatocyte. The settings on record: probe bupropion, read-out: FC.
Sequence of CYP2B6 (P20813 whole entry): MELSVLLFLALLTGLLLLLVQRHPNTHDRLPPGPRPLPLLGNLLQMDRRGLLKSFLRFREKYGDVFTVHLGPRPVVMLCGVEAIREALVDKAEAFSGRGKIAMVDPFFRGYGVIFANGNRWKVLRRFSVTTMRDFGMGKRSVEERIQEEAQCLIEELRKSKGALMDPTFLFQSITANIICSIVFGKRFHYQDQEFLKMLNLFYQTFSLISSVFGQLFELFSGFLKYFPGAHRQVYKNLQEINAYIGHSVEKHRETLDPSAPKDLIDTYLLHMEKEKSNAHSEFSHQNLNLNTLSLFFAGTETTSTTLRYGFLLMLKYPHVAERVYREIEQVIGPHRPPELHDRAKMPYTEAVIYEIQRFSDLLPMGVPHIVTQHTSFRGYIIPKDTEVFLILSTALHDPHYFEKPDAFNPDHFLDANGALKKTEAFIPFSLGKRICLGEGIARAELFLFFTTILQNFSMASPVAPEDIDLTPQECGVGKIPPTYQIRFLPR

T4 sequence (P20815 whole entry): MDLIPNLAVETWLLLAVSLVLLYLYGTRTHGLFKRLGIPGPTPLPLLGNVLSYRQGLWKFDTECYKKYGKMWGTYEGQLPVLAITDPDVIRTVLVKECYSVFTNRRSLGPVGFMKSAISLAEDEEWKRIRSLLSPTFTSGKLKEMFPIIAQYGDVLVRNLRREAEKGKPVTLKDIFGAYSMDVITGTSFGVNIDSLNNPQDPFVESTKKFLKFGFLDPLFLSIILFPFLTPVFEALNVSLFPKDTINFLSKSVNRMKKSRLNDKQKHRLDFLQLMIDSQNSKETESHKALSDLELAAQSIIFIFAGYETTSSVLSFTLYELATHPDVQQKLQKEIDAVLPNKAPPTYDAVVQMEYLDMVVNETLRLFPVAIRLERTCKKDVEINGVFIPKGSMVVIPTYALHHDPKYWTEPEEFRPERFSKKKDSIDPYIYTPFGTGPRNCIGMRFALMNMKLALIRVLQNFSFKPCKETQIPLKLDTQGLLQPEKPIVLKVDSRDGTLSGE
T1 sequence (P08684 whole entry): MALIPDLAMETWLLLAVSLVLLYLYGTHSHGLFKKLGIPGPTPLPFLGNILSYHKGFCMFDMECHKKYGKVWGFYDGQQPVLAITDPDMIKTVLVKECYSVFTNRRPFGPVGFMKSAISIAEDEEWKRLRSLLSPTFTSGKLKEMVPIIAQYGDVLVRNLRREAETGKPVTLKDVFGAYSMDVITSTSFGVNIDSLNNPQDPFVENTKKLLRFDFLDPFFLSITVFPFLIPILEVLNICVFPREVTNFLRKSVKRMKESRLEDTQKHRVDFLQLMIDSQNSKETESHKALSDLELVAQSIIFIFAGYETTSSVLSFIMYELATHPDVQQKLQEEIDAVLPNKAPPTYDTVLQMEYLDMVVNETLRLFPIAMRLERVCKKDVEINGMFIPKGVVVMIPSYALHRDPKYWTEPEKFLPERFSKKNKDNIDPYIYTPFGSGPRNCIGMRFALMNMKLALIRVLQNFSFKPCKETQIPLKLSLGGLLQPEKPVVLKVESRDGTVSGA
T2 sequence (P24462 whole entry): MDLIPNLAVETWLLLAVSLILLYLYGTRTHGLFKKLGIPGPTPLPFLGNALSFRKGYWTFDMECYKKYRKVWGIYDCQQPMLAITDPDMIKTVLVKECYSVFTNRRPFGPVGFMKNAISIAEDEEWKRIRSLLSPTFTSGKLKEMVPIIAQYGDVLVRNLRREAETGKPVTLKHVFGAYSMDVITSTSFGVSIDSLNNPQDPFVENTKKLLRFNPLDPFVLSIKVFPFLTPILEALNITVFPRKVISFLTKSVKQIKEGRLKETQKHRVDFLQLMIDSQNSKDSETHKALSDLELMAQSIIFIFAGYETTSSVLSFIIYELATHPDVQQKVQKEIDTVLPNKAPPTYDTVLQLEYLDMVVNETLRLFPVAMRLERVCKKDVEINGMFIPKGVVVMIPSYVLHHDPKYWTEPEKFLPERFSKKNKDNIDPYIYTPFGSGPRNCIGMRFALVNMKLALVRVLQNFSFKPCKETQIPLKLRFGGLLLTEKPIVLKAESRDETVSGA
Sequence of Cytochrome P450 2C19 (P33261 whole entry): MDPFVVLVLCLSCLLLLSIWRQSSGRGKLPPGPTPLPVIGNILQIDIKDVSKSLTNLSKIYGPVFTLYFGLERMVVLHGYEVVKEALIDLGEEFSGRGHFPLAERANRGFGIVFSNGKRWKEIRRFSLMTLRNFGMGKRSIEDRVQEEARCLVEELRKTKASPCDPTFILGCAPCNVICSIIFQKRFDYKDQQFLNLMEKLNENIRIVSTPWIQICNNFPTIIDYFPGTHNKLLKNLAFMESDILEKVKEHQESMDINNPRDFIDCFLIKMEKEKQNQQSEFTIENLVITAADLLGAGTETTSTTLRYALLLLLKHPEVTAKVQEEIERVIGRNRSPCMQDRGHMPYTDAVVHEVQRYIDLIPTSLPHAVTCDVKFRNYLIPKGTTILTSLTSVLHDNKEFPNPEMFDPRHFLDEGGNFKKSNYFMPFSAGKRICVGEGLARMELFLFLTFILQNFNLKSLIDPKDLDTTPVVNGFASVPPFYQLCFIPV

By Km is commonly meant the concentration of substrate that gives half-maximal velocity. The term Vmax denotes the top rate of the reaction or transport when substrate is in excess. The term Ki denotes a dissociation constant, usually derived from enzyme kinetics or from competition with a known ligand. Consider `CC(C)(CO)NC(=O)c1ccc(Oc2cc(F)c(CC(=O)O)cc2Cl)c(NS(=O)(=O)c2ccc(C3CC3)cc2Cl)c1`, for which the Drug metabolism entry at Cytochrome P450 3A4 [1], on Cytochrome P450 3A7 [3], at Cytochrome P450 2J2 [4], at Cytochrome P450 3A5 [6] and at Cytochrome P450 2C8 [11] was “metabolite_detected” in each case. The Km in series [2] worked out at 2.75 µM; in series [8], 4.11 µM. Moreover, the maximal velocity (Vmax) in [2] is 0.044 nmol/min/mg; on Cytochrome P450 2J2 [7], 0.584 nmol/min; in series [8], 0.023 nmol/min/mg; at Cytochrome P450 3A7 [9], 0.26 nmol/min; at Cytochrome P450 3A5 [10] it was 0.221 nmol/min; at Cytochrome P450 2C8 [13] it was 0.031 nmol/min. Besides, the Vmax at Cytochrome P450 3A4 [14] came out at 0.96 nmol/min. Further, the Ki is 240 µM on Cytochrome P450 2J2 [5] and 31.7 µM at Cytochrome P450 2C8 [12].
As for `CC(C)(C)NC(=O)c1ccc(Oc2cc(F)c(CC(=O)O)cc2Cl)c(NS(=O)(=O)c2ccc(C3(O)CC3)cc2Cl)c1`, the Drug metabolism result on Cytochrome P450 3A4 [1], at Cytochrome P450 3A7 [3], on Cytochrome P450 2J2 [4], at Cytochrome P450 3A5 [6], on Cytochrome P450 2C19 and at Cytochrome P450 2C8 [11] was “metabolite_detected” in each case. Further, the Michaelis constant (Km) came to 38.5 µM in series [2] and 35.2 µM in series [8]. Further, the Vmax in series [2] came to 0.317 nmol/min/mg; at Cytochrome P450 2J2 [7], 0.299 nmol/min; in [8], 0.296 nmol/min/mg; on Cytochrome P450 3A7 [9] it was 0.286 nmol/min; on Cytochrome P450 3A5 [10] it was 1.13 nmol/min; at Cytochrome P450 2C8 [13], 0.25 nmol/min. Besides, on Cytochrome P450 3A4 [14], the Vmax was determined as 1.41 nmol/min.
On to `COc1ccc2[nH]c([S+]([O-])Cc3ncc(C)c(OC)c3C)nc2c1` (stereo not drawn) [OMEPRAZOLE], for which the fold induction at 48 h, up to 30 µM on CYP1A2 was 47.4.
For `CCC1(c2ccccc2)C(=O)NC(=O)NC1=O` [PHENOBARBITAL], the fold induction at 48 h, up to 30 µM on CYP2B6 stood at 22.1.

For the origin of these results see ChEMBL document CHEMBL3526017, “Predicting the drug interaction potential of AMG 853, a dual antagonist of the D-prostanoid and chemoattractant receptor-homologous molecule expressed on T helper 2 cells receptors” (Drug Metab Dispos, 2012).
